From US9138465B2, “Pharmaceutical composition for treating lysosomal storage disease” (OSAKA UNIVERSITY, priority 2011, dated 2015)

Legend:
Assay type in all cases: cell-based
[1] = system: normal skin fibroblast; experiment: Enzyme activities in culture supernatants of normal cell + various reagents; conditions: for GALC enzyme activity in culture supernatant / total β-Hex enzyme activity in culture supernatant / α-Fuc enzyme activity in culture supernatant / α-Gal enzyme activity in culture supernatant / α-Gluc enzyme activity in culture supernatant / α-Iduro enzyme activity in culture supernatant / α-Man enzyme activity in culture supernatant / β-Gal enzyme activity in culture supernatant / β-Gluc enzyme activity in culture supernatant / β-Glucuro enzyme activity in culture supernatant / β-Hex A enzyme activity in culture supernatant: NH4Cl 20 mM, CQ 20 uM, Bafilo 20 nM; for excretion of group of lysosomal enzymes compared with no reagent added: Tables 1 and 2
Protocol: In a culture dish with a diameter of 10 cm, a normal skin fibroblast was cultured in a DMEM medium containing 10% FBS (fetal bovine serum) and a recommended amount of an antibiotic and/or an antibacterial agent [Gibco (registered trade name) Antibiotic-Antimycotic, Life Technologies] (hereinafter, referred to as “a standard culture medium”) until the cell became confluent. To the cultured normal skin fibroblast, ammonium chloride was added in such an amount that the concentration of ammonium chloride became 20 mM in the culture medium. Then, the cell was cultured. Seven days after, a culture supernatant was collected, and filtered with a 0.2 μm sterilizing filter to remove large debris and living cells. After the filtration, the activities of lysosomal enzymes contained in the supernatant were measured by a method as described later.
To confirm that the lysosomal enzyme group thus obtained contained lysosomal enzymes, the culture supernatant obtained after addition of ammonium chloride and culture was subjected to measurement of the activities of lysosomal enzymes. As controls, a culture supernatant of a normal skin fibroblast that was cultured without addition of ammonium chloride, and a culture supernatant of an ML-II patient-derived skin fibroblast (hereinafter, referred to as “an ML-II cell”) that was cultured without addition of ammonium chloride were used to measure the activities of lysosomal enzymes in the culture supernatant.
(§1) The activities of lysosomal enzymes were measured by a standard method using an artificial 4-methylumbelliferyl substrate. Briefly, a sample was incubated with the artificial substrate at 37° C. for 1 hour in an acidic phosphate or citrate buffer, and fluorescence was measured on a microplate reader at an excitation wavelength of 365 nm and an emission wavelength of 450 nm. For galactocerebrosidase, 6-hexadecanoylamino-4-methylumbelliferyl β-D-galactopyranoside (Slater and Frith Ltd.) was used as a substrate, and fluorescence was measured at an excitation wavelength of 385 nm and an emission wavelength of 450 nm. The enzyme activities were calculated as nmol/h/μL.
In a culture dish with a diameter of 10 cm, a normal skin fibroblast was cultured in a standard culture medium until the cell became confluent. […] Then, the cell was cultured. Five days after and 7 days after, a culture supernatant was collected, and filtered with a 0.2 μm sterilizing filter to remove large debris and living cells. After the filtration, the activities of lysosomal enzymes contained in the supernatant were measured by the same method as described in Example 1. As a control, a culture supernatant of a normal skin fibroblast that was cultured in a standard culture medium with no addition of any reagents was used to measure the activities of lysosomal enzymes in the culture supernatant.
In Tables 1 and 2, β-Gal means β-galactosidase, total β-Hex means total β-hexosaminidase, β-Hex A means β-hexosaminidase A, β-Gluc means β-glucosidase, α-Man means α-mannosidase, α-Fuc means α-fucosidase, α-Gluc means α-glucosidase, α-Gal means α-galactosidase, β-Glucuro means β-glucuronidase, α-L-Iduro means α-L-iduronidase, and GALC means galactocerebrosidase. SCM means a standard culture medium with no addition of any reagents. […] Bafilo means bafilomycin A1. The enzyme activity is expressed as nmol/h/μL.

[2] = system: COS-1 cell; experiment: Enzyme activities in culture supernatant of COS-1 cell + NH4Cl
Protocol: as §1
In a culture dish with a diameter of 10 cm, a COS-1 cell was cultured in a standard culture medium until the cell became confluent. To the cultured COS-1 cell, ammonium chloride was added in such an amount that the concentration became 20 mM in the culture medium. Then, the cell was cultured. Three days after, a culture supernatant was collected, and filtered with a 0.2 μm sterilizing filter to remove large debris and living cells. After the filtration, the activities of lysosomal enzymes contained in the supernatant were measured by the same method as described in Example 1. As a control, a culture supernatant of a COS-1 cell that was cultured in a standard culture medium with no addition of ammonium chloride was used to measure the activities of lysosomal enzymes in the culture supernatant.
In Table 3, β-Gal means β-galactosidase, total β-Hex means total β-hexosaminidase, β-Hex A means β-hexosaminidase A, β-Gluc means β-glucosidase, α-Man means α-mannosidase, α-Fuc means α-fucosidase, α-Gluc means α-glucosidase, α-Gal means α-galactosidase, β-Glucuro means β-glucuronidase, α-L-Iduro means α-L-iduronidase, and GALC means galactocerebrosidase. NH4Cl(−) means a culture supernatant in the case of no addition of ammonium chloride. NH4Cl(+) means a culture supernatant in the case of addition of ammonium chloride. The enzyme activity is expressed as nmol/h/μL.

[3] = target: T1, mannose 6-phosphate receptor (Homo sapiens, UniProt P11717); experiment: Competitive inhibition test for mannose 6-phosphate; conditions: ML-II cell, FIG. 4
T1 construct: a mannose 6-phosphate receptor on the cell surface; endogenous in cells; host or cells: ML-II cell
T1 sequence (P11717 41-2491): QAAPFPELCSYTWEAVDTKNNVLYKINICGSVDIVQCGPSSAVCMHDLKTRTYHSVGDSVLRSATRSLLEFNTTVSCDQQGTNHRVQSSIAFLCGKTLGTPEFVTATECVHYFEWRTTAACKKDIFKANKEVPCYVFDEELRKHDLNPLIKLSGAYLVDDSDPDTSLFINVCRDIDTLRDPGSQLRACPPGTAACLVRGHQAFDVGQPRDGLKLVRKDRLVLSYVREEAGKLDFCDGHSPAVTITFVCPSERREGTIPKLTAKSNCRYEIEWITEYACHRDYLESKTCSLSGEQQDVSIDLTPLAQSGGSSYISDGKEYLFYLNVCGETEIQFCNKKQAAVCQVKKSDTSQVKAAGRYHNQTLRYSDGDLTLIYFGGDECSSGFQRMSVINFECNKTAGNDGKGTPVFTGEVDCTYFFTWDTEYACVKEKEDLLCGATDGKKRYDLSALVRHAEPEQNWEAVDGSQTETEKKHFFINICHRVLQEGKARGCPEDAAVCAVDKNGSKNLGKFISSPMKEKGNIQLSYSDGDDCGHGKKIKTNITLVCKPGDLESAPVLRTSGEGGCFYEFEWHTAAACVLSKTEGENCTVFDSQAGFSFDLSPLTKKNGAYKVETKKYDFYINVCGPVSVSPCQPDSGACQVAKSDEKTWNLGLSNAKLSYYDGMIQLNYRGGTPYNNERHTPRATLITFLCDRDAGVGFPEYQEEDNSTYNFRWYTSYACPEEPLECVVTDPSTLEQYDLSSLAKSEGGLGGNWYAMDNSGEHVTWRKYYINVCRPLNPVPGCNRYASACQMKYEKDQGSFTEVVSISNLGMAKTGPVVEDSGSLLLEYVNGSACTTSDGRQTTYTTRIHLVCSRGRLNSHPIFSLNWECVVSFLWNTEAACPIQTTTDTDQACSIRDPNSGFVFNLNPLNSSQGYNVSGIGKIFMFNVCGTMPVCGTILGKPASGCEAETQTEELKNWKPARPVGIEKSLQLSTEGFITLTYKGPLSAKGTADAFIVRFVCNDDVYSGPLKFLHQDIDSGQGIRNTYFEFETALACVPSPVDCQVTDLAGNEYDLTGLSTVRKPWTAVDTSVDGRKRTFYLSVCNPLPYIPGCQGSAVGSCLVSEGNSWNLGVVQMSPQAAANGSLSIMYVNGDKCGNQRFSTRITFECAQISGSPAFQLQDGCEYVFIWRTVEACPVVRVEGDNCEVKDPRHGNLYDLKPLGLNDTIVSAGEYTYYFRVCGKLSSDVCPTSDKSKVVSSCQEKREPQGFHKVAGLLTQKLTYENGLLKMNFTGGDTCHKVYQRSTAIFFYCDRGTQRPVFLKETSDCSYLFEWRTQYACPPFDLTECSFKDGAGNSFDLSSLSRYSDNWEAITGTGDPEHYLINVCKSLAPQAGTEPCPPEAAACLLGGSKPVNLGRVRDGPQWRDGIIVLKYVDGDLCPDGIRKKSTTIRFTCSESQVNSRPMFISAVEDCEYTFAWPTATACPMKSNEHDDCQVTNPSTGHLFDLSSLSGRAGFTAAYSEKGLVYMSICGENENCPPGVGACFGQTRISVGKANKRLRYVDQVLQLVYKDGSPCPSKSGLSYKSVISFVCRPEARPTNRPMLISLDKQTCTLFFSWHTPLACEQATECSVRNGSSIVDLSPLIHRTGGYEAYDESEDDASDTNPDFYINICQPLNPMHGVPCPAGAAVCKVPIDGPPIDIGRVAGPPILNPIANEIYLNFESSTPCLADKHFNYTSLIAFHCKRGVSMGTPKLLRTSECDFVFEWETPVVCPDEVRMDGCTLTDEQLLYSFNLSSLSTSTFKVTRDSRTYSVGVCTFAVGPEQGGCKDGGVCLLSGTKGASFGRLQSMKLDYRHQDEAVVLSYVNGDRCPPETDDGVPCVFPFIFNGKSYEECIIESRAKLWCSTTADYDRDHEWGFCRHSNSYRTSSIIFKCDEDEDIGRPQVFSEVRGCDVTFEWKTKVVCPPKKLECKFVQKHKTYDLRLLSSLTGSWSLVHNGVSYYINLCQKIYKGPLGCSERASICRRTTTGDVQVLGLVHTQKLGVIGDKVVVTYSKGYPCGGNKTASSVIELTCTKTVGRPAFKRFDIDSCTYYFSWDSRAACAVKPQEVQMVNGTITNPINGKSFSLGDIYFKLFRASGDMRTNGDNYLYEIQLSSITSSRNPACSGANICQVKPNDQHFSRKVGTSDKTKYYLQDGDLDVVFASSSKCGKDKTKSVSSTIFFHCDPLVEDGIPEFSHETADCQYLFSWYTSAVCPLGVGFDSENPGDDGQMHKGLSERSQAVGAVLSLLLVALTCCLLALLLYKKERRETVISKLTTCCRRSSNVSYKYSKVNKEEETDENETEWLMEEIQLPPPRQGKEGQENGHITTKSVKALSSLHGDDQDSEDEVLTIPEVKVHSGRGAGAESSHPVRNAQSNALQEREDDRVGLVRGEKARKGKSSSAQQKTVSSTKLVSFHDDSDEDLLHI

SMILES | GALC enzyme activity in culture supernatant ([1]; Day 5, normal cell) [nmol/h/µL] | total β-Hex enzyme activity in culture supernatant ([1]; Day 5, normal cell) [nmol/h/µL] | α-Fuc enzyme activity in culture supernatant ([1]; Day 5, normal cell) [nmol/h/µL] | α-Gal enzyme activity in culture supernatant ([1]; Day 5, normal cell) [nmol/h/µL] | α-Gluc enzyme activity in culture supernatant ([1]; Day 5, normal cell) [nmol/h/µL] | α-Iduro enzyme activity in culture supernatant ([1]; Day 5, normal cell) [nmol/h/µL] | α-Man enzyme activity in culture supernatant ([1]; Day 5, normal cell) [nmol/h/µL] | β-Gal enzyme activity in culture supernatant ([1]; Day 5, normal cell) [nmol/h/µL] | β-Gluc enzyme activity in culture supernatant ([1]; Day 5, normal cell) [nmol/h/µL] | β-Glucuro enzyme activity in culture supernatant ([1]; Day 5, normal cell) [nmol/h/µL] | β-Hex A enzyme activity in culture supernatant ([1]; Day 5, normal cell) [nmol/h/µL] | GALC enzyme activity in culture supernatant ([1]; Day 7, normal cell) [nmol/h/µL] | total β-Hex enzyme activity in culture supernatant ([1]; Day 7, normal cell) [nmol/h/µL] | α-Fuc enzyme activity in culture supernatant ([1]; Day 7, normal cell) [nmol/h/µL] | α-Gal enzyme activity in culture supernatant ([1]; Day 7, normal cell) [nmol/h/µL] | α-Gluc enzyme activity in culture supernatant ([1]; Day 7, normal cell) [nmol/h/µL] | α-Iduro enzyme activity in culture supernatant ([1]; Day 7, normal cell) [nmol/h/µL] | α-Man enzyme activity in culture supernatant ([1]; Day 7, normal cell) [nmol/h/µL] | β-Gal enzyme activity in culture supernatant ([1]; Day 7, normal cell) [nmol/h/µL] | excretion of group of lysosomal enzymes compared with no reagent added ([1]; normal skin fibroblast) | further results
CO/C1=C\C(C)=C\[C@@H](C)[C@@H](O)[C@@H](C)C/C(C)=C/C=C/[C@H](OC)[C@@H]([C@@H](C)[C@@H](O)[C@H](C)[C@@]2(O)C[C@@H](O)[C@H](C)[C@@H](C(C)C)O2)OC1=O [Bafilo, bafilomycin A1] | 0.64 | 437.7 | 3.49 | 0 | 1.13 | 0.57 | 100.4 | 4.65 | 3.97 | 4.07 | 18.9 | 0.69 | 300.5 | 3.97 | 0.91 | 2.44 | 0.64 | 123.9 | 2.93 | excreted in larger amounts | β-Gluc enzyme activity in culture supernatant ([1]; Day 7, normal cell): 8.65 nmol/h/µL; β-Glucuro enzyme activity in culture supernatant ([1]; Day 7, normal cell): 8.03 nmol/h/µL; β-Hex A enzyme activity in culture supernatant ([1]; Day 7, normal cell): 22.5 nmol/h/µL
CCN(CC)CCCC(C)Nc1ccnc2cc(Cl)ccc12 (centres unmarked) [CQ, chloroquine] |  |  |  |  |  |  |  |  |  |  |  |  |  |  |  |  |  |  |  | excreted in larger amounts | 
Cl.N [NH4Cl, ammonium chloride] | 0.55 | 736.1 | 6.68 | 0 | 1.92 | 3.61 | 137.1 | 8.20 | 4.53 | 3.85 | 67.0 | 0.50 | 1239.2 | 5.70 | 0.84 | 4.51 | 13.90 | 200.0 | 11.65 | excreted in larger amounts | β-Gluc enzyme activity in culture supernatant ([1]; Day 7, normal cell): 5.39 nmol/h/µL; β-Glucuro enzyme activity in culture supernatant ([1]; Day 7, normal cell): 12.78 nmol/h/µL; β-Hex A enzyme activity in culture supernatant ([1]; Day 7, normal cell): 157.9 nmol/h/µL; kinds of lysosomal enzymes contained in culture supernatant ([1]; normal skin fibroblast, ammonium chloride 20 mM, seven days, FIG. 1): at least 10 kinds; excretion of group of lysosomal enzymes compared with no addition of ammonium chloride ([2]; COS-1 cell, Table 3): excreted in larger amounts; GALC enzyme activity in culture supernatant ([2]; Day 3, COS1, NH4Cl 20 mM): 0.41 nmol/h/µL; total β-Hex enzyme activity in culture supernatant ([2]; Day 3, COS1, NH4Cl 20 mM): 799.8 nmol/h/µL; α-Fuc enzyme activity in culture supernatant ([2]; Day 3, COS1, NH4Cl 20 mM): 24.2 nmol/h/µL; α-Gal enzyme activity in culture supernatant ([2]; Day 3, COS1, NH4Cl 20 mM): 10.60 nmol/h/µL; α-Gluc enzyme activity in culture supernatant ([2]; Day 3, COS1, NH4Cl 20 mM): 7.96 nmol/h/µL; α-Iduro enzyme activity in culture supernatant ([2]; Day 3, COS1, NH4Cl 20 mM): 13.60 nmol/h/µL; α-Man enzyme activity in culture supernatant ([2]; Day 3, COS1, NH4Cl 20 mM): 178.0 nmol/h/µL; β-Gal enzyme activity in culture supernatant ([2]; Day 3, COS1, NH4Cl 20 mM): 25.26 nmol/h/µL; β-Gluc enzyme activity in culture supernatant ([2]; Day 3, COS1, NH4Cl 20 mM): 6.64 nmol/h/µL; β-Glucuro enzyme activity in culture supernatant ([2]; Day 3, COS1, NH4Cl 20 mM): 21.37 nmol/h/µL; β-Hex A enzyme activity in culture supernatant ([2]; Day 3, COS1, NH4Cl 20 mM): 85.9 nmol/h/µL
O=C[C@@H](O)[C@@H](O)[C@H](O)[C@H](O)COP(=O)(O)O [mannose 6-phosphate] |  |  |  |  |  |  |  |  |  |  |  |  |  |  |  |  |  |  |  |  | β-glucosidase in mannose 6-phosphate competitive inhibition test [3]: not to be affected; intracellular uptake of lysosomal enzymes ([3]; mannose 6-phosphate 0, 5 or 10 mM with lysosomal enzyme group sample): concentration-dependently and competitively inhibited
